IC50 data for nine compounds are collected here from patent US10851073B2, “Protein tyrosine phosphatase inhibitors and methods of use thereof” (Calico Life Sciences LLC, priority 2019, dated 2020).

Assay [1] has as its target T1, His tagged full-length PTPN1 protein (Homo sapiens, UniProt P18031).
T1 construct: made in house
T1 sequence (P18031 with tags, fused parts or gaps): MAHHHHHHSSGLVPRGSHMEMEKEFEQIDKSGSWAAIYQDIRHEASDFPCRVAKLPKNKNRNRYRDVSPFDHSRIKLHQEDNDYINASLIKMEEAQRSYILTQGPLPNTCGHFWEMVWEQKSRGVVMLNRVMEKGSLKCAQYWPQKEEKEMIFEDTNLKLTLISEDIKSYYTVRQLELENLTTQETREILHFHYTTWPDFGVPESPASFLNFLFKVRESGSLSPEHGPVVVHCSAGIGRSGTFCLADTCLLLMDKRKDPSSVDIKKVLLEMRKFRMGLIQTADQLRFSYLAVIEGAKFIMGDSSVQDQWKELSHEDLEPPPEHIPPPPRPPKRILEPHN
Description: Mobility shift assay (MSA) used to determine potency of PTPN1 inhibitors. In kind it is biochemical. The settings on record: enzyme 0.5 nM, substrate 2 μM. A digest of the protocol: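 Full-length His-tagged human PTPN1 (0.5 nM) was preincubated 10 min at room temperature with compound (12-point, 1:3 dilution) in HEPES pH 7.5 buffer with EGTA, EDTA, Tween 20 and DTT. A 2 μM fluorescent phospho-insulin receptor peptide was then added for 10 min before quench. Mobility-shift % conversion gave % inhibition and IC50.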

Assay [2] has as its system B16F10 mouse melanoma cells. Description: B16F10 IFNγ-induced cellular growth inhibition assay. In kind it is cell-based. The settings on record: B16-F10, with 0.5 ng/mL IFNγ, read-out: B16F10 GI IC50. A digest of the protocol: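 B16F10 cells grown in DMEM+10% FBS, with or without 0.5 ng/mL final mouse IFNγ, and dosed in triplicate at 100 μM to 0.001 μM final (0.1% DMSO). Confluence imaged every 6 h for 5 days; percent growth inhibition versus DMSO/with-IFNγ control taken once DMSO/no-IFNγ wells exceeded 95% confluence, giving IC50.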

The target in assay [3] is T2, His tagged PTPN2 (TC45) protein (Homo sapiens, UniProt P17706).
T2 construct: made in house
T2 sequence (P17706 with tags, fused parts or gaps isoform P17706-2): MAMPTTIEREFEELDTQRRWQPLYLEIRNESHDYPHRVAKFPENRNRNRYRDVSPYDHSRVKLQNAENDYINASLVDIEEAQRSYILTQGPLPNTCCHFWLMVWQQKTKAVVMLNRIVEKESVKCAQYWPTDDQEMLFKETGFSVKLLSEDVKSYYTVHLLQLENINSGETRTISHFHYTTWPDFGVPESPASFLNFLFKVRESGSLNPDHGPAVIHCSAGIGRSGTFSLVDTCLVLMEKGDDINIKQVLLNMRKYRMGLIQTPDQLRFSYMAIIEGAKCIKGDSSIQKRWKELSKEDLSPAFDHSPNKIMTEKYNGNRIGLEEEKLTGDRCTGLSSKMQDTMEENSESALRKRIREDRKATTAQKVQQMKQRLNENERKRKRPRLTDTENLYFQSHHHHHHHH
Briefly: Mobility shift assay used to determine potency of PTPN2 inhibitors. The conditions noted are these: enzyme 0.5 nM, substrate 2 μM; read-out: PTPN2 MSA IC50. In kind it is biochemical. A digest of the protocol:
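Microfluidic mobility-shift read-out (488/530 nm) of dephosphorylation of an OG488-tagged phosphotyrosine insulin receptor peptide, 2 μM, over 10 min at room temperature, after 10 min compound preincubation with 0.5 nM enzyme. Buffer: 50 mM HEPES pH 7.5, EGTA, EDTA, Tween 20, DTT. IC50 derived from % inhibition over 12-point 1:3 series.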

Molecules are shown by their SMILES.

Regarding `CC(C)(CCNC1CCc2cc(O)c(N3CC(=O)NS3(=O)=O)c(F)c2C1)C(F)(F)F` (stereo not drawn) [Compound 123, 5-{1-fluoro-3-hydroxy-7-[(4,4,4-trifluoro-3,3-dimethylbutyl)amino]-5,6,7,8-tetrahydronaphthalen-2-yl}-1λ^6,2,5-thiadiazolidine-1,1,3-trione], the IC50 (as a rule, the concentration that gives 50% inhibition) lay in the range of 1 to 10 nM in assay [1], 1000 to 10000 nM in assay [2] and 1 to 10 nM in assay [3].
As to `O=C1CN(c2c(O)cc3c(c2F)C[C@@H]([C@@H]2CCN(S(=O)(=O)C4CC4)C2)CC3)S(=O)(=O)N1` (single isomer, unassigned) [Compound 137, 5-{(7RS)-7-[(3RS)-1-(cyclopropanesulfonyl)pyrrolidin-3-yl]-1-fluoro-3-hydroxy-5,6,7,8-tetrahydronaphthalen-2-yl}-1λ^6,2,5-thiadiazolidine-1,1,3-trione], the IC50 in assay [1] was 1 to 10 nM; in assay [2], 10000 to 100000 nM; in assay [3], less than 1 nM.
For the compound `COC(C)(C)CCNC1CCc2cc(O)c(N3CC(=O)NS3(=O)=O)c(F)c2C1` (stereo not drawn) [Compound 122, 5-{1-fluoro-3-hydroxy-7-[(3-methoxy-3-methylbutyl)amino]-5,6,7,8-tetrahydronaphthalen-2-yl}-1λ^6,2,5-thiadiazolidine-1,1,3-trione], the results for the concentration for half-maximal inhibition (IC50) in assay [1], in assay [2] and in assay [3] were 10 to 100 nM, 1000 to 10000 nM and 1 to 10 nM, respectively.
Take `O=C1CN(c2c(O)cc3c(c2F)CC(NCCC(F)F)CC3)S(=O)(=O)N1` (stereo not drawn) [Compound 223, 5-{7-[(3,3-difluoropropyl)amino]-1-fluoro-3-hydroxy-5,6,7,8-tetrahydronaphthalen-2-yl}-1λ^6,2,5-thiadiazolidine-1,1,3-trione]: the concentration for half-maximal inhibition (IC50) in assay [1] was 1 to 10 nM; in assay [2] it was less than 1000 nM; in assay [3], 10 to 100 nM.
As to `CO[C@@H]1CCc2cc(O)c(N3CC(=O)NS3(=O)=O)c(F)c2C1` (single isomer, unassigned) [Compound 104], the results for the IC50 in assay [1], in assay [2] and in assay [3] were 10 to 100 nM, 10000 to 100000 nM and 10 to 100 nM, respectively.
Take `COCCOC1CCc2cc(O)c(N3CC(=O)NS3(=O)=O)c(F)c2C1` (stereo not drawn) [Compound 106, 5-[1-fluoro-3-hydroxy-7-(2-methoxyethoxy)-5,6,7,8-tetrahydronaphthalen-2-yl]-1λ^6,2,5-thiadiazolidine-1,1,3-trione]: the IC50 was in the range of 10 to 100 nM in assay [1], 10000 to 100000 nM in assay [2] and 10 to 100 nM in assay [3].
For the compound `O=C1CN(c2c(O)cc3c(c2F)CC(NCC[C@H]2C[C@@H](OC(F)(F)F)C2)CC3)S(=O)(=O)N1` (stereo partly drawn) [Compound 234, 5-[1-fluoro-3-hydroxy-7-({2-[(1s,3r)-3-(trifluoromethoxy)cyclobutyl]ethyl}amino)-5,6,7,8-tetrahydronaphthalen-2-yl]-1λ^6,2,5-thiadiazolidine-1,1,3-trione], the IC50 in assay [1] was 1 to 10 nM; in assay [2], 1000 to 10000 nM; in assay [3] it was 10 to 100 nM.
For `CC(C)(C#N)CCNC1CCc2cc(O)c(N3CC(=O)NS3(=O)=O)c(F)c2C1` (stereo not drawn) [Compound 150, 4-{[8-fluoro-6-hydroxy-7-(1,1,4-trioxo-1λ^6,2,5-thiadiazolidin-2-yl)-1,2,3,4-tetrahydronaphthalen-2-yl]amino}-2,2-dimethylbutanenitrile] the same measures were 1 to 10 nM, 1000 to 10000 nM and 1 to 10 nM.
Take `O=C1CN(c2c(O)cc3c(c2F)CC(NCCC2(C(F)(F)F)CC2)CC3)S(=O)(=O)N1` (stereo not drawn) [Compound 124, 5-[1-fluoro-3-hydroxy-7-({2-[1-(trifluoromethyl)cyclopropyl]ethyl}amino)-5,6,7,8-tetrahydronaphthalen-2-yl]-1λ^6,2,5-thiadiazolidine-1,1,3-trione]: the IC50 was 1 to 10 nM in assay [1], less than 1000 nM in assay [2] and 1 to 10 nM in assay [3].
